# What was measured:
# human P2Y1-R = molecular target: T1, human P2Y1-R (Homo sapiens, UniProt P47900); assay: [Ca^2+]i response of 1321N1 astrocytoma cells expressing P2Y1-R GFP; format: cell-based; conditions: for EC50: agonist, read-out: EC50 at the P2Y1 receptor
# T1 construct: expressed in transfected cells; host or cells: 1321N1 astrocytoma cells
# Description: GFP constructs of human P2Y2-R, P2Y1-R and P2Y11-R were stably expressed in 1321N1 astrocytoma cells, which lack endogenous expression of P2X- and P2Y-receptors. The respective cDNA of the receptor gene was cloned into a pEGFPN1 vector and after transfection, using FuGENE 6 Transfection Reagent (Roche Molecular Biochemicals, Mannheim, Germany), cells were selected with 0.5 mg/ml G418 (geneticine; Merck Chemicals, Darmstadt, Germany) and grown in DMEM supplemented with 10% serum (FCS), 100 U/ml penicillin and 100 U/ml streptomycin at 37° C. and 5% CO2. The expression and cell membrane localization of the respective P2Y receptors was confirmed through the analysis of the GFP fluorescence. The functionality of the expressed GFP-labeled receptor in cells was verified by recording a change of [Ca^2+]i after stimulation with the appropriate receptor agonist.
# 1321N1 astrocytoma cells transfected with the respective plasmid for P2Y-R-GFP expression plated on coverslips (22 mm diameter) and grown to approximately 80% density, were incubated with 2 μM fura 2/AM and 0.02% pluronic acid in Na-HBS buffer (Hepes buffered saline: 145 mM NaCl, 5.4 mM KCl, 1.8 mM CaCl2, 1 mM MgCl2, 25 mM glucose, 20 mM Hepes/Tris pH 7.4) for 30 min at 37° C. The cells were superfused (1 ml/min, 37° C.) with different concentrations of nucleotide in Na-HBS buffer. The nucleotide-induced change of [Ca^2+] was monitored by detecting the fluorescence intensities with excitations at 340 nm and 380 nm. Only GFP-labeled cells were analyzed. Microsoft Excel (Microsoft Corp., Redmond, Wash., USA) and SigmaPlot (SPSS Inc., Chicago, Ill., USA) were used to derive the concentration-response curves and EC50 values from the average response amplitudes obtained in at least three independent experiments (Ecke et al., 2006; Ecke et al., 2008). Only cells with a clear GFP-signal and with the typical calcium response kinetics upon agonist pulse application were included in the data analysis. The nucleotide induced change of [Ca^2+]i was monitored by detecting the respective emission intensity of fura 2/AM at 510 nm with 340 nm and 380 nm excitations (Ubl et al., 1998). The average maximal amplitude of the responses and the respective standard errors were calculated from ratio of the fura 2/AM. The GFP-tagged P2Y receptors are suitable for pharmacological and physiological studies, as previously reported (Tulapurkar et al., 2004; Tulapurkar et al., 2006; Zylberg et al., 2007).
# PC12 cells = assay: Toxicity at PC12 cells (MTT assay); format: cell-based
# Description: The results shown are the mean±S.D of three independent experiments in triplicate.
# In this study, the toxicity of APCPP-γ-S, at 1-1000 μM, at PC12 cells was tested by MTT assay. […] At 1000 μM, 75% of the cells were still viable.
# Aβ40-Cu^2+ aggregates = molecular target: T2, Aβ40-Cu^2+ aggregates (Homo sapiens, UniProt P05067); assay: DLS, size reduction of Aβ40-Cu^2+ aggregates
# T2 construct: purchased GL-Biochem (Shanghai)
# Description: PBS buffer, Aβ40, chelator, Zn(NO3)2, and Cu(NO3)2 solutions were filtered through a […] PVDF syringe filter. 496 μM Aβ40 solution in 10 mM PBS (pH 7.4) and 2 mM Zn(NO3)2 solution were mixed to obtain 200 μM Aβ40-Zn^2+ (1:1 ratio) of a cloudy solution. Similarly, 2 mM Cu(NO3)2 solution was added to 496 μM Aβ40 in 10 mM PBS (pH 6.6). Aβ40-Zn^2+/Cu^2+ (10 μl) solution was transferred to Eppendorf tubes containing 10 mM PBS buffer (64 or 67 μl) followed by the addition of 3 and 6 eq of 2 mM nucleotide (6 or 3 μl) solution and incubation for 45 min at RT. The resulting mixture was incubated for another 30 min at RT and DLS data were then collected in a 70 μl disposable cuvette. The final sample concentrations were 25 μM Aβ40, 25 μM Zn^2+ or Cu^2+, and 150 or 75 μM nucleotide.
# Monomeric Aβ40 was incubated with either Cu^2+ or Zn^2+ for 45 min to form a 1:1 peptide metal-ion complex. […] For the Aβ40-Zn^2+ particles the instrument readings indicated a different size distribution. […] We evaluated the capacity of the phosphorothioate analogues to dissolve Aβ40-Cu^2+ or Zn^2+ aggregates, as compared to EDTA and clioquinol known for their ability to dissolve Aβ-M^2+ aggregates (Ritchie et al., 2003; Huang et al., 1997). The reduction of dH of Aβ40-Cu^2+ aggregates by EDTA, clioquinol, or tested compounds was compared to the dH of Aβ-Cu^2+ aggregate itself (FIG. 5A). In addition, the efficacy of the chelators ATP-γ-S, ADP-β-S, APCPP-γ-S and GDP-β-S to resolubilize Aβ40-Cu^2+ and Aβ40-Zn^2+ is described in FIGS. 5B and 5C relative to EDTA and clioquinol. EDTA efficiency in reducing Aβ particle size is considered as 100%.
# [1] = Chemical stability (acid, base, air-oxidation) monitored by 31P-NMR; format: physicochemical; conditions: for stability: pD=1 as printed, two weeks
# Description: In order to study and evaluate the chemical stability of adenosine-5′-tetrathio bisphosphonate and di-adenosine 5′,5″-tetrathiobisphosphonate to basic and acidic condition, as well as to air-oxidation, kinetic measurements were performed by monitoring the changes in the percentage of these amalogues, using ^31P-NMR (FIGS. 16-18).
# The evaluation of the stability of adenosine-5′-tetrathio bisphosphonate by ^31P-NMR was first conducted at pD=1.5 for four days. In the course of the experiment, new signals emerged in ^31P-NMR spectra at 104.4, 92.3, 89.2, 86.1, 67.8 ppm and the percentage of starting material was obtained from the ratio of integration between the starting material and the total peaks in the spectrum.
# Next, we studied the stability of adenosine-5′-tetrathio bisphosphonate under basic conditions, pD=11. […] After two weeks, the ^31P-NMR spectrum was identical to the starting material, without any indication of decomposition. We associate this with the repulsion between the negative charges of the tetrathio-bisphosphonate moiety in adenosine-5′-tetrathio bisphosphonate and OH^− ions. In addition, intramolecular nucleophilic attack and formation of disulfide bond are less likely to occur under these conditions.
# Furthermore, we tested the stability of adenosine-5′-tetrathio bisphosphonate under air-oxidizing conditions, by performing ^31P-NMR measurements in an open rotating NMR tube. […] The MS and ^31P-NMR analysis of the freeze-dried sample of adenosine-5′-tetrathio bisphosphonate after 3 days indicated the formation of an intramolecularly oxidized product.
# T1 sequence (P47900 whole entry): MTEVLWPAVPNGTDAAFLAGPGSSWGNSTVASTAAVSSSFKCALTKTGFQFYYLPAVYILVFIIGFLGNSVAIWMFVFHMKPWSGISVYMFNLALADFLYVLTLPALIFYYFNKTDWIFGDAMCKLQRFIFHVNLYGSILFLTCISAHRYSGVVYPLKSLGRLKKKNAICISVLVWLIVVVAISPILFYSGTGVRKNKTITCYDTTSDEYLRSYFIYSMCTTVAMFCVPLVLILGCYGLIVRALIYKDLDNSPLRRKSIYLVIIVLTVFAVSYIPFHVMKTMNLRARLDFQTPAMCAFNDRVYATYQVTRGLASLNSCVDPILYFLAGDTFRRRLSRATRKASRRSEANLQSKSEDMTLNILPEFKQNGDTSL
# T2 sequence (P05067 672-711 limits assumed): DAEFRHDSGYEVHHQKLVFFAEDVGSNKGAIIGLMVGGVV
molecule,measurement,setting,value
"Nc1ncnc2c1ncn2[C@@H]1O[C@H](COP(O)(=S)OP(=O)(O)C(Cl)(Cl)P(=O)(O)O)[C@@H](O)[C@H]1O (single isomer, unassigned) [APPCCl2P-α-S, adenosine 5′-[Pα-thio]-β,γ-(dichloromethylene)triphosphate]",EC50,human P2Y1-R,> 10 µM
same,viable cells,PC12 cells; 100 μM,100%
same,viable cells,PC12 cells; 1000 μM,75%
"Nc1ncnc2c1ncn2[C@@H]1O[C@H](COP(=O)(O)OP(O)(O)=S)[C@@H](O)[C@H]1O [ADP-β-S, adenosine 5′-[β-thio]diphosphate, reference compound]",fold better than GDP-β-S in reducing dH of Aβ40-Cu^2+ aggregates,Aβ40-Cu^2+ aggregates,5.4 fold
"Nc1ncnc2c1ncn2[C@@H]1O[C@H](COP(=O)(O)CP(=O)(O)OP(O)(O)=S)[C@@H](O)[C@H]1O [APCPP-γ-S, adenosine 5′-[Pγ-thio]-α,β-methylenetriphosphate]",no activity at the P2Y1 receptor up to (concentration),human P2Y1-R,up to 10 μM
same,EC50,human P2Y1-R,> 10 µM
same,reduction of cell viability,PC12 cells; 1000 μM,25%
same,viable cells,PC12 cells; 1000 μM,75%
same,not toxic up to (concentration),PC12 cells; 24 h,up to 100 μM
same,dH (particle size) of Aβ40-Cu^2+ after chelator,"Aβ40-Cu^2+ aggregates; aggregate alone 1836 nm, 25 μM Aβ40-Cu^2+, pH 6.6",64 nm
adenosine-5′-tetrathiobisphosphonate,stability,[1],completely stable even after two weeks
same,stability under basic conditions,"[1]; pD=11, two weeks",highly stable
"di-adenosine-5′,5″-tetrathiobisphosphonate",stability under air-oxidizing conditions,"[1]; open NMR tube, 3 days",highly stable
same,stability,[1],identical to that of adenosine 5′-tetrathiobisphosphonate
